Laboratory results from patent US10035759B2, “Method of chromatographic separation” (The Procter & Gamble Company, priority 2015, dated 2018).

Tested on: human TRPM8
Test: TRPM8 FLIPR assay: intracellular Ca2+ level in HEK-293 cells stably transfected with human TRPM8
Format: cell-based
Details: dose 30 uM
Experimental: TRPM8 activation was determined by measuring intracellular calcium ion (Ca^2+) level from transfected cells with the TRPM8 receptor gene, as described in CELL CULTURE PROTOCOL EXAMPLE, the results of which are shown in TABLES 2 and 3.
To determine what effect, if any, test compounds had on TRPM8 (SEQ ID NO: 1) activation the protocols listed below were used.
TRPM8 Protocol-FLIPR Assay
To determine whether TRPM8 is activated, the intracellular calcium ion (Ca^2+) level was measured from transfected cells with the TRPM8 receptor sequence (SEQ ID NO: 1). HEK-293 (human embryonic kidney) cells stably transfected with human TRPM8 were grown in 15 ml growth medium (high glucose DMEM (Dulbecco's Modification of Eagle's Medium) supplemented with 10% FBS (fetal bovine serum), 100 ug/ml penicillin/streptomycin, 5 μg/ml blasticindin, and 100 μg/ml zeocin) in a 75 cm^2 flask for 3 days at 37° C. in a mammalian cell culture incubator set at 5% CO2. Cells were detached with addition of 2 ml of trypsin-EDTA buffer (GIBCO® 25200, Invitrogen, Grand Island, N.Y.) for about 2-3 min. Trypsin was inactivated by addition of 8 ml growth medium. Cells were transferred to a 50 ml tube and centrifuged at 850 rpm for 3 minutes to remove medium. After centrifugation, a pellet of cells was formed in the bottom of the tube separating them from the supernatant solution. […] Fluo-4 AM is a fluorescent dye used for quantifying cellular Ca^2+ concentrations in the 100 nM to 1 microM range. […]
The pelleted cells were re-suspended in 10 ml assay buffer and 90 al aliquots (˜50,000 cells) per well delivered to a 96-well assay plate containing 10 al of test compounds (1 mM in assay buffer, […]) or buffer control and incubated at room temperature for 30 minutes. After 30 minutes, a plate was placed into a fluorometric imaging plate reader (FLIPR TETRA from Molecular Devices, Sunnyvale, Calif.) and basal fluorescence recorded (excitation wave length 488 nm and emission wave length 510 nm). Then 20 μl of 180 μM solution of TRPM8 agonist WS5 coolant was added to the assay buffer and the fluorescence signals were automatically recorded by FLIPR. For determining the direct effect of test compounds on TRPM8, fluorescence was measured immediately after addition of each compound (TABLES 2 and 3). Additional discussion of the FLIPR method can be found in Smart et al., Characterization using FLIPR of human vanilloid VR1 receptor pharmacology, European Journal of Pharmacology 417, 51-58 (2001) and Liu et al., Development and validation of a platelet calcium flux assay using a fluorescent imaging plate reader, Analytical Biochemistry 357, 216-224 (2006).

CCOC(=O)CNC(=O)C1CC(C)CCC1C(C)C (stereo not shown) [WS-5, N-ethoxycarbonylmethyl-ρ-menthan-3-carboxamide]
100.0%: 50 sec % of WS5 (50 sec) | 3 min % of WS5 (3 min) | 5 min % of WS5 (5 min) | 10 min % of WS5 (10 min)
